Several values for one entry are separate records, joined by “and”; a condition that tells them apart may be missing. Equal entries are not always repeated.
Test system: carrageenan-induced mechanical hyperalgesia in rats
Assay: Carrageenan-induced mechanical hyperalgesia, paw pressure test, time course to 240 min (Example 2)
Format: in vivo, male Sprague-Dawley rats
Conditions: 3 mg/kg s.c.
Description: In this model, inflammation is induced by intraplantar injection of carrageenan (2%) into the right hindpaw of the rat. Three hours later, reaction thresholds are measured using the paw pressure test. Pressure is gradually applied to both hind paws (inflamed and control) of the rat, and reaction thresholds are determined as the pressure (g) required to elicit paw withdrawal or vocalization. Morphine (3 mg/kg, s.c.) was used as a positive control.
The experiments in this study used fifty (50) male Sprague-Dawley rats (SPF status, Janvier, France), each weighing 204-260 grams. The rats were housed in a temperature (20-24° C.) and relative humidity (45%-65%) controlled room and acclimated to an artificial day/night cycle of 12 hours light (6.30 a.m. to 6.30 p.m.)/12 hours darkness. Rats had free access to sterilized tap water and were fed ad libitum with pelleted complete diet (reference A04, S.A.F.E.). Rats were housed 4 per cage (cages Type E) and were acclimated for a period of at least 5 days before any testing. Each rat was identified by tail markings. Based on the SPF status of the animal facilities, there is no reason to expect that contaminants were present in the food, water or bedding, at levels capable of interfering with the results of the tests.
Pain Test: Static mechanical hyperalgesia was assessed using the Paw Pressure test or Randall & Selitto test (Randall, L. O. and Selitto, J. J., A method for measurement of analgesic activity on inflamed tissue, Arch Int Pharmacodyn, 1957(111): 409-419). This test requires the application of an increasing pressure on the hind paws between a flat surface and a blunt pointer. This test is usually used with animals with one hind paw inflamed by an injection or injured by ligation, and one normal hind paw, to evaluate drugs for analgesic action. The apparatus exerts a steadily increasing force and reaction threshold is determined as the pressure (g) required to elicit paw withdrawal and/or vocalization. In the experiment, animals were gently handled by the experimenter and static mechanical hyperalgesia was assessed. Each reaction threshold measurement was done for both hind paws.
Five (5) experimental groups of 10 rats each were used. Each group was first injected with of 100 μL of a 2% carrageenan suspension in the plantar aspect of the right hindpaw. Three hours after carrageenan injection, paw withdrawal threshold was measured using the paw pressure test (Baseline). The 5 groups were then administered the following: • Group 1: vehicle (0.5% HPMC), i.p., solution (negative control); • Group 2: MIN-117 (0.01 mg/kg, i.p.) in 0.5% HPMC, suspension; • Group 3: MIN-117 (0.1 mg/kg, i.p.) in 0.5% HPMC, suspension; • Group 4: MIN-117 (1 mg/kg, i.p.) in 0.5% HPMC, suspension; and • Group 5: morphine (3 mg/kg, s.c.) in 0.9% NaCl, solution (positive control).
After administering vehicle, MIN-117, or morphine, the antihyperalgesic effect of the compounds was evaluated using the paw pressure test at 0 min. (T0), 30 min., 60 min., 120 min., and 240 min.
Vehicle and MIN-117 were administered intraperitoneally at 10 mL/kg. Morphine was subcutaneously administered at 5 mL/kg. Dosing and testing were performed in a random order by a blinded experimenter except for the morphine-treated group. Doses were expressed in terms of free active substance. Rats were sacrificed at the end of the experiment by CO2 inhalation pending subsequent removal by a certified company.
Results were assessed as: the paw withdrawal threshold (mean±s.e.m.) in grams of contact pressure for each group, calculated from individual paw withdrawal thresholds; the percentage of variation of the paw withdrawal threshold calculated from the mean value of the vehicle-treated group; and/or the percentage of activity. To determine a statistical effect of the test substance and the reference substance, data were analyzed by a non-parametrical test. The significance level was p<0.05.

[1] = 120 min, listed as Morphine HCl
[2] = 240 min, listed as Morphine HCl
[3] = Baseline, listed as Morphine HCl
[4] = T0 (baseline before dosing), listed as Morphine HCl
[5] = T0 + 30 min, listed as Morphine HCl

`CN1CC[C@]23c4c5ccc(O)c4O[C@H]2[C@@H](O)C=C[C@H]3[C@H]1C5` [Morphine, reference compound] was tested. Which “Time of maximum effect on injured paw withdrawal threshold after treatment” value did it give?
The value was 30 min.

And the “Nociceptive threshold, control paw, individual rats” value (30 min, listed as Morphine HCl)?
Its value is 680 g (9×) and 520 g.

What about the “Nociceptive threshold, injured paw, individual rats” value (30 min, listed as Morphine HCl) of the same compound?
Its value is 600 g and 620 g (2×) and 560 g and 640 g and 680 g (3×) and 440 g and 400 g.

What about the “Nociceptive threshold, control paw, individual rats” value (60 min, listed as Morphine HCl) of the same compound?
Its value is 580 g and 680 g (8×) and 520 g.

And the “Nociceptive threshold, injured paw, individual rats” value (60 min, listed as Morphine HCl)?
The value was 440 g and 600 g (3×) and 460 g and 620 g (2×) and 680 g and 480 g and 380 g.

And the “Nociceptive threshold, control paw, individual rats” value [1]?
Its value is 480 g and 320 g and 440 g (3×) and 500 g and 380 g and 520 g and 460 g and 360 g.

What about the “Nociceptive threshold, injured paw, individual rats” value [1] of the same compound?
Its value is 280 g (3×) and 260 g and 400 g and 320 g (2×) and 440 g and 220 g and 200 g.

And the “Nociceptive threshold, control paw, individual rats” value [2]?
Its value is 320 g (4×) and 360 g (4×) and 400 g and 420 g.

And the “Nociceptive threshold, injured paw, individual rats” value [2]?
Its value is 160 g (3×) and 180 g (3×) and 200 g (2×) and 240 g and 140 g.

What about the “Nociceptive threshold, control paw, individual rats” value [3] of the same compound?
Its value is 320 g (2×) and 440 g and 420 g (3×) and 360 g (2×) and 460 g and 380 g.

What about the “Nociceptive threshold, injured paw, individual rats” value [3] of the same compound?
The value was 160 g and 200 g (5×) and 220 g and 180 g (3×).

What about the “% activity, injured paw” value (T0 (baseline before dosing)) of the same compound?
Its value is 2%.

And the “% variation vs control paw, injured paw” value (T0 (baseline before dosing))?
Its value is −51%.

What about the “% variation vs vehicle-treated group, injured paw” value (T0 (baseline before dosing)) of the same compound?
The value was 5%.

What about the “Nociceptive threshold, control paw (mean ± s.e.m.)” value (T0 (baseline before dosing)) of the same compound?
The value was 390.0 ± 15.6 g.

And the “Nociceptive threshold, injured paw (mean ± s.e.m.)” value (T0 (baseline before dosing))?
The value was 192 ± 5.3 g.

What about the “Nociceptive threshold, control paw (mean ± s.e.m.)” value [4] of the same compound?
The value was 390. g.

What about the “Nociceptive threshold, injured paw (mean ± s.e.m.)” value [4] of the same compound?
The value was 192 g.

And the “% activity, injured paw” value (T0 + 30 min)?
The value was 230%.

And the “% variation vs control paw, injured paw” value (T0 + 30 min)?
Its value is −11%.

And the “% variation vs pre-drug threshold, injured paw” value (T0 + 30 min)?
Its value is 208%.

And the “Nociceptive threshold, control paw (mean ± s.e.m.)” value (T0 + 30 min)?
The value was 664 g.

What about the “Nociceptive threshold, injured paw (mean ± s.e.m.)” value (T0 + 30 min) of the same compound?
Its value is 592 ± 31.3 g.

What about the “% variation vs vehicle-treated group, injured paw” value [5] of the same compound?
Its value is 233%.

And the “Nociceptive threshold, injured paw (mean ± s.e.m.)” value [5]?
Its value is 592 g.

What about the “% activity, injured paw” value (T0 + 60 min) of the same compound?
Its value is 214%.

And the “% variation vs control paw, injured paw” value (T0 + 60 min)?
The value was −16%.

What about the “% variation vs pre-drug threshold, injured paw” value (T0 + 60 min) of the same compound?
Its value is 185%.

And the “% variation vs vehicle-treated group, injured paw” value (T0 + 60 min)?
Its value is 191%.

And the “Nociceptive threshold, control paw (mean ± s.e.m.)” value (T0 + 60 min)?
The value was 654 g.

And the “Nociceptive threshold, injured paw (mean ± s.e.m.)” value (T0 + 60 min)?
Its value is 548 ± 31.3 g.

And the “Nociceptive threshold, injured paw (mean ± s.e.m.)” value (T0 + 60 min, listed as Morphine HCl)?
The value was 548 g.

And the “% activity, injured paw” value (T0 + 120 min)?
The value was 72%.

And the “% variation vs control paw, injured paw” value (T0 + 120 min)?
The value was −31%.

And the “% variation vs pre-drug threshold, injured paw” value (T0 + 120 min)?
Its value is 56%.

What about the “% variation vs vehicle-treated group, injured paw” value (T0 + 120 min) of the same compound?
Its value is 61%.

And the “Nociceptive threshold, control paw (mean ± s.e.m.)” value (T0 + 120 min)?
The value was 434 g.

And the “Nociceptive threshold, injured paw (mean ± s.e.m.)” value (T0 + 120 min)?
Its value is 300 ± 23.5 g.

And the “Nociceptive threshold, injured paw (mean ± s.e.m.)” value (T0 + 120 min, listed as Morphine HCl)?
Its value is 300 g.

And the “% activity, injured paw” value (T0 + 240 min)?
Its value is −4%.

And the “% variation vs control paw, injured paw” value (T0 + 240 min)?
The value was −49%.

What about the “% variation vs pre-drug threshold, injured paw” value (T0 + 240 min) of the same compound?
The value was −6%.

And the “% variation vs vehicle-treated group, injured paw” value (T0 + 240 min)?
The value was −3%.

What about the “Nociceptive threshold, control paw (mean ± s.e.m.)” value (T0 + 240 min) of the same compound?
Its value is 354 g.

And the “Nociceptive threshold, injured paw (mean ± s.e.m.)” value (T0 + 240 min)?
Its value is 180 ± 8.9 g.

And the “Nociceptive threshold, injured paw (mean ± s.e.m.)” value (T0 + 240 min, listed as Morphine HCl)?
The value was 180 g.

And the “Effect on injured paw withdrawal threshold vs vehicle-treated group (in words)” value (from 30 min. to 120 min. after administration)?
The value was “marked and significant increase”.

— patent US11766430B2, “Methods of using a phenoxypropylamine compound to treat pain” (Minerva Neurosciences, Inc., priority 2018, dated 2023)
